Test results as given in ChEMBL document CHEMBL1201862, “PubChem BioAssay data set” (2004).
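Results reflect a 48-hour exposure of cells in 96-well plates to compound at five concentrations. GI50 is the concentration that inhibits growth by half.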 The source made the active and inactive calls. Rule as the data show it: active = GI50 up to about 1.1 µM and inactive = higher.

Key:
Test in all cases: growth of human tumour cells (NCI), 48 h
A549 = tested on: A549
ACHN = tested on: ACHN
CAKI-1 = tested on: CAKI-1
HCC 2998 = tested on: HCC 2998
HOP-92 = tested on: HOP-92
HT-29 = tested on: HT-29
Malme-3M = tested on: Malme-3M
NCI-H522 = tested on: NCI-H522
OVCAR-8 = tested on: OVCAR-8
SF-268 = tested on: SF-268
SF-295 = tested on: SF-295
SN12C = tested on: SN12C
SNB-19 = tested on: SNB-19
SNB-75 = tested on: SNB-75
TK-10 = tested on: TK-10
U-251 = tested on: U-251
HCT-116 = tested on: HCT-116
RXF 393 = tested on: RXF 393
SR = tested on: SR

With Nc1c(-c2ccc(-c3c(N)[n+]([O-])c4ccccc4[n+]3[O-])cc2)[n+]([O-])c2ccccc2[n+]1[O-] the GI50 (A549) was 20.9 µM (inactive), the GI50 (ACHN) was 16.2 µM (inactive) and the GI50 (CAKI-1) was 6.65 µM (inactive). The GI50 (HCC 2998) was 15.1 µM (inactive), the GI50 (HOP-92) was > 100 µM (inactive) and the GI50 (HT-29) was 12.1 µM (inactive). The GI50 (Malme-3M) was 3.02 µM (inactive), the GI50 (NCI-H522) was 1.6 µM (inactive) and the GI50 (OVCAR-8) was 18.9 µM (inactive). The GI50 (SF-268) was 17.2 µM (inactive), the GI50 (SF-295) was 16 µM (inactive) and the GI50 (SN12C) was 11.7 µM (inactive). The GI50 (SNB-19) was 13.7 µM (inactive), the GI50 (SNB-75) was 8.15 µM (inactive) and the GI50 (TK-10) was 17.6 µM (inactive). The GI50 (U-251) was 14.7 µM (inactive).

With CC(=O)NNc1nc(C)c(C(/C=C/c2ccc(/C=C/C(=N\NC(=O)c3ccncc3)c3sc(NNC(C)=O)nc3C)cc2)=N/NC(=O)c2ccncc2)s1 the GI50 (A549) was > 100 µM (inactive), the GI50 (ACHN) was > 100 µM (inactive) and the GI50 (CAKI-1) was > 100 µM (inactive). For the same compound, the GI50 (HCC 2998) was > 100 µM (inactive), the GI50 (HCT-116) was > 100 µM (inactive) and the GI50 (HOP-92) was 54 µM (inactive). For the same compound, the GI50 (HT-29) was > 100 µM (inactive), the GI50 (Malme-3M) was > 100 µM (inactive) and the GI50 (OVCAR-8) was > 100 µM (inactive). For the same compound, the GI50 (RXF 393) was > 100 µM (inactive), the GI50 (SF-268) was > 100 µM (inactive) and the GI50 (SF-295) was > 100 µM (inactive). The GI50 (SN12C) was > 100 µM (inactive), the GI50 (SNB-19) was > 100 µM (inactive) and the GI50 (SNB-75) was > 100 µM (inactive). For the same compound, the GI50 (TK-10) was > 100 µM (inactive) and the GI50 (U-251) was > 100 µM (inactive).

For FC(F)(F)c1ccc2nc(Nc3ccc(Cl)c(Cl)c3)c(-c3ccccc3)nc2c1, the GI50 (A549) was 17.1 µM (inactive), the GI50 (ACHN) was 40.3 µM (inactive) and the GI50 (HCC 2998) was 86.7 µM (inactive). For the same compound, the GI50 (HCT-116) was 7.66 µM (inactive), the GI50 (HOP-92) was 46.7 µM (inactive) and the GI50 (HT-29) was 26 µM (inactive). The GI50 (Malme-3M) was > 100 µM (inactive), the GI50 (OVCAR-8) was 21 µM (inactive) and the GI50 (RXF 393) was 39.1 µM (inactive). For the same compound, the GI50 (SF-268) was 14.6 µM (inactive), the GI50 (SF-295) was 18.7 µM (inactive) and the GI50 (SN12C) was 75.2 µM (inactive). For the same compound, the GI50 (SNB-19) was 74 µM (inactive), the GI50 (SR) was 6.64 µM (inactive) and the GI50 (TK-10) was 73.1 µM (inactive). For the same compound, the GI50 (U-251) was 7.16 µM (inactive).

With CC(=O)NC(CCCCNC(=O)N(C)N=O)C(=O)NCc1ccccc1 (centres undefined) the GI50 (A549) was > 100 µM (inactive), the GI50 (ACHN) was > 100 µM (inactive) and the GI50 (CAKI-1) was > 100 µM (inactive). For the same compound, the GI50 (HCC 2998) was > 100 µM (inactive), the GI50 (HCT-116) was > 100 µM (inactive) and the GI50 (HOP-92) was > 100 µM (inactive). The GI50 (HT-29) was > 100 µM (inactive), the GI50 (Malme-3M) was > 100 µM (inactive) and the GI50 (NCI-H522) was > 100 µM (inactive). For the same compound, the GI50 (OVCAR-8) was > 100 µM (inactive), the GI50 (RXF 393) was > 100 µM (inactive) and the GI50 (SF-268) was > 100 µM (inactive). For the same compound, the GI50 (SF-295) was > 100 µM (inactive), the GI50 (SN12C) was > 100 µM (inactive) and the GI50 (SNB-19) was > 100 µM (inactive). For the same compound, the GI50 (SNB-75) was 43.4 µM (inactive), the GI50 (TK-10) was > 100 µM (inactive) and the GI50 (U-251) was > 100 µM (inactive).

For CCN(CC)CCCNc1nccc2c(C)c3c(cc12)c1cnccc1n3C, the GI50 (A549) was 0.0526 µM (active), the GI50 (ACHN) was 0.353 µM (active) and the GI50 (CAKI-1) was 0.144 µM (active). The GI50 (HCC 2998) was 0.0401 µM (active), the GI50 (HCT-116) was 0.0564 µM (active) and the GI50 (HT-29) was 0.0101 µM (active). The GI50 (OVCAR-8) was 0.0692 µM (active), the GI50 (SF-268) was 0.294 µM (active) and the GI50 (SF-295) was 0.206 µM (active). For the same compound, the GI50 (SN12C) was 0.238 µM (active), the GI50 (SNB-19) was 0.288 µM (active) and the GI50 (SNB-75) was 0.427 µM (active). For the same compound, the GI50 (TK-10) was 0.444 µM (active) and the GI50 (U-251) was 0.367 µM (active).

For Cn1ncc2c(NCc3ccccc3)ncnc21, the GI50 (A549) was > 100 µM (inactive), the GI50 (ACHN) was > 100 µM (inactive) and the GI50 (CAKI-1) was > 100 µM (inactive). The GI50 (HCC 2998) was > 100 µM (inactive), the GI50 (HCT-116) was > 100 µM (inactive) and the GI50 (HT-29) was > 100 µM (inactive). The GI50 (Malme-3M) was > 100 µM (inactive), the GI50 (OVCAR-8) was > 100 µM (inactive) and the GI50 (RXF 393) was > 100 µM (inactive). The GI50 (SF-268) was > 100 µM (inactive), the GI50 (SF-295) was > 100 µM (inactive) and the GI50 (SN12C) was > 100 µM (inactive). The GI50 (SNB-19) was > 100 µM (inactive), the GI50 (SNB-75) was 50.6 µM (inactive) and the GI50 (SR) was > 100 µM (inactive). The GI50 (TK-10) was > 100 µM (inactive) and the GI50 (U-251) was > 100 µM (inactive).

For CSCCC(C(=O)O)N(CC1(O)OCC(O)C(O)C1O)N=O (centres undefined), the GI50 (A549) was > 100 µM (inactive), the GI50 (ACHN) was > 100 µM (inactive) and the GI50 (HCC 2998) was > 100 µM (inactive). For the same compound, the GI50 (HCT-116) was > 100 µM (inactive), the GI50 (HOP-92) was > 100 µM (inactive) and the GI50 (HT-29) was > 100 µM (inactive). For the same compound, the GI50 (Malme-3M) was > 100 µM (inactive), the GI50 (NCI-H522) was > 100 µM (inactive) and the GI50 (OVCAR-8) was > 100 µM (inactive). The GI50 (RXF 393) was > 100 µM (inactive), the GI50 (SNB-75) was > 100 µM (inactive) and the GI50 (TK-10) was > 100 µM (inactive). For the same compound, the GI50 (U-251) was > 100 µM (inactive).

In the case of N#CCC(=O)NC1C2CC3CC(C2)CC1C3 (centres undefined), the GI50 (A549) is reported as 34 µM (inactive), the GI50 (ACHN) is reported as 19.1 µM (inactive) and the GI50 (CAKI-1) is reported as 18.6 µM (inactive). For the same compound, the GI50 (HCC 2998) was 18 µM (inactive), the GI50 (HCT-116) was 15.2 µM (inactive) and the GI50 (HOP-92) was 18.3 µM (inactive). For the same compound, the GI50 (HT-29) was 18.5 µM (inactive), the GI50 (Malme-3M) was 20.3 µM (inactive) and the GI50 (NCI-H522) was 17.1 µM (inactive). The GI50 (OVCAR-8) was 17.5 µM (inactive), the GI50 (RXF 393) was 15.8 µM (inactive) and the GI50 (SF-268) was 17.7 µM (inactive). For the same compound, the GI50 (SF-295) was 16.7 µM (inactive), the GI50 (SN12C) was 16.1 µM (inactive) and the GI50 (SNB-19) was 17.3 µM (inactive). The GI50 (SNB-75) was 17.2 µM (inactive), the GI50 (TK-10) was 19.4 µM (inactive) and the GI50 (U-251) was 16.2 µM (inactive).

With CCOC(=O)C(Oc1ccc(OC)c2c1C(=O)CCC2)c1ccccc1 (centres undefined) the GI50 (A549) was > 100 µM (inactive), the GI50 (ACHN) was > 100 µM (inactive) and the GI50 (CAKI-1) was > 100 µM (inactive). The GI50 (HCC 2998) was > 100 µM (inactive), the GI50 (HCT-116) was 84.7 µM (inactive) and the GI50 (HT-29) was 53.1 µM (inactive). The GI50 (Malme-3M) was > 100 µM (inactive), the GI50 (NCI-H522) was 94 µM (inactive) and the GI50 (OVCAR-8) was > 100 µM (inactive). The GI50 (SF-268) was > 100 µM (inactive), the GI50 (SF-295) was 69.5 µM (inactive) and the GI50 (SN12C) was > 100 µM (inactive). For the same compound, the GI50 (SNB-19) was > 100 µM (inactive), the GI50 (TK-10) was > 100 µM (inactive) and the GI50 (U-251) was > 100 µM (inactive).
